Read-outs that look alike come from different tables or passages of the source.
Key:
[1] = system: SOX17 (endoderm marker) in RUES2-GLR cells; test: DevTox GLR-Endo assay: increase in percent SOX17-positive cells (AEID 3093, Sox17_up); format: cell-based, human; conditions: for Emax: Homo sapiens
Procedure: (§1) The total test chemical incubation period was 48 h.
(§2) (Supplementary Materials).

[2] = system: SOX17 (endoderm marker) in RUES2-GLR cells; test: DevTox GLR-Endo assay: decrease in percent SOX17-positive cells (AEID 3094, Sox17_dn)
Procedure, shortened: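 RUES2-GLR cells under endoderm differentiation exposed to test chemicals for 48 h in total, with 0.2% DMSO solvent control and SB431542 (1 µM) as developmental-toxicant control. Endpoints: decrease in total cell count and in percent SOX17-positive cells; n = 4 biological replicates minimum.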

[3] = system: o/c ratio in H9 embryonic stem cells; conditions: Teratogen Index, o/c ratio; cited from earlier work
[4] = system: BRA (mesoderm marker) in RUES2-GLR cells; test: DevTox GLR-Endo assay: increase in percent BRA-positive cells (AEID 3096, Bra_up); format: cell-based, human; conditions: AEID 3096, 48 h exposure
Procedure: as §1, §2

[5] = system: H9 ESCs; conditions: global gene expression at 6, 96 and 192 h; cited from earlier work
[6] = DevTox GLR-Endo assay: decrease in total cell count, cytotoxicity (AEID 3098, CellCount_dn); conditions: human, RUES2-GLR cells under directed endoderm differentiation
[7] = system: RUES2-GLR cells; test: as above
[8] = system: SOX2 (ectoderm and pluripotency marker) in RUES2-GLR cells; test: DevTox GLR-Endo assay: increase in percent SOX2-positive cells (AEID 3095, Sox2_up)
Procedure: RUES2-GLR cells were seeded 24 h prior to differentiation initiation into vitronectin-coated 384-well CellCarrier Ultra plates (10.6 mm^2/well) (Perkin Elmer, Waltham, MA, USA). Vitronectin (0.5 µg/cm^2)-coated plates were prepared and stored at 4 °C, wrapped in parafilm, for less than seven days and incubated at room temperature for one hour prior to cell seeding. […] Cells were dispensed into 20 µL coating solution using a Certus FLEX Micro Dispenser (Fritz Gyger, Gwatt, Switzerland) with a 0.45 µm valve to a final volume of 100 µL and density of 2.8 × 10^3 cells per well.
Following a 24 h post-seeding incubation period (Time = 0 h) (Figure 3A), directed endoderm differentiation was initiated with the PSC Definitive Endoderm Induction kit (Gibco, Waltham, MA, USA). […] A target dilution series (0.002–200 µM) was generated by dispensing variable nanoliter volumes of test chemical and backfilling with a complementary volume of DMSO using Echo Cherry Pick software (v.1.6.2). Wells were backfilled with 50 µL of induction medium using a Certus FLEX Micro Dispenser with 0.45 µm valves. Test compound treatment plates were mixed on a Multi-Microplate Genie mixer at 700 rpm for 10 min and subsequently incubated for two hours in a humidified atmosphere at 37 °C with 5% CO2. Each chemical treatment (0 h–Medium A; 24 h–Medium B) were prepared the day of treatment. At 0 h, cell culture medium was aspirated from the assay plate at a rate of 1 µL/s and 40 µL of Medium A ± test chemical applied using a CyBio FeliX automated liquid handler (Analytik Jena, Jena, Germany). At 24 h, conditioned cell culture medium was aspirated and 40 µL of Medium B ± test chemical was applied. At 48 h, cells were prepared for high-content image acquisition by fixation and nuclear staining. The total test chemical incubation period was 48 h. For fixation, a 4% paraformaldehyde (PFA) solution was achieved by adding 40 µL of 8% PFA directly to cell culture medium using a CyBio FeliX liquid handler. […] Following an additional 30 min incubation period at room temperature, staining solution was aspirated, 50 µL of DPBS was added, and plate sealed with MicroAmp Optical Adhesive Film (Applied Biosystems, Waltham, MA, USA).
Images were acquired within 12 h post-fixation using an Opera Phenix High-Content Screening System (Perkin Elmer, Waltham, MA, USA). […] Cell identification and mean biomarker fluorescent intensities were calculated using Harmony image analysis software (Perkin Elmer, Waltham, MA, USA). Cell nuclei were identified using the object classifying algorithm C of the software with border objects excluded using the “Remove Border Objects” feature. Mean cell biomarker intensity statistics were gathered from each object and exported for further analysis using a custom script in Python version 3.7.4 [61] […] For each plate, pluripotent-negative control wells were used to establish baseline intensity values and a cutoff threshold for determining SOX17 and BRA biomarker-positive cells. Endoderm differentiated positive control wells were used to establish baseline intensity values and a cutoff threshold for SOX2-positive cells. Cells with a mean intensity five times the baseline median absolute deviation (5*bmad) above the median cell intensity for plate-based control population technical replicates were considered positive. Well-based cell counts, reflected by the sum of total counted objects from all fields, were used to calculate the percent responders for each respective biomarker and evaluate cytotoxicity. Well-level results were exported for data modeling in the ToxCast Pipeline.
The ToxCast Pipeline R package (tcpl v.2.0.2) was used to normalize, fit, and qualify concentration-response screening data [63].

[9] = system: SOX17 in H9 human ESC line; conditions: SOX17 half-maximal inhibition concentration; read-out: hPST IC50; cited from earlier work
[10] = system: H9 human ESC line; conditions: cited from earlier work
[11] = cited from earlier work; for DT Class.: developmental toxicant classification
[12] = Homo sapiens, read-out: tp (winning model)

For `CC1=C(/C=C/C(C)=C/C=C/C(C)=C/C(=O)O)C(C)(C)CCC1`, the Emax ([1]; tcpl plot AEID3093, maximum mean response, read-out: MAX_MEAN) was 4.3%, the Emax ([1]; tcpl plot AEID3093, maximum median response, read-out: MAX_MED) was 3.82% and the “HIT−CALL” value ([1]; tcpl plot AEID3093, COFF 20.3) was 0. For the same compound, the IC50 ([2]; Homo sapiens, 48 h) was 160 nM, the AC50 ([2]; Homo sapiens, 48 h, read-out: DevTox-GLR Endo AC50 (µM), SOX17 half-maximal activity concentration, 48 h exposure) was 0.1 µM and the Emax ([2]; Homo sapiens, read-out: DevTox % Max Inhibition) was 101%. The Emax ([2]; Homo sapiens, read-out: MAX_MEAN) was 101%, the Emax ([2]; Homo sapiens, read-out: MAX_MED) was 101% and the AC50 ([2]; Homo sapiens, read-out: ga (winning model), tcpl plot AEID3094, gain parameter of winning curve fit (log concentration, µM axis), hit calls only (converted)) was 0.101 µM. The Emax [2, 12] was 99.2%, the “Hit Call” value ([2]; Table S2, SOX17-positive cells, cutoff 3*bmad) was “Positive” and the “DevTox ACC” value ([2]; Table S2, percent SOX17-positive cells, 48 h exposure) was 0.04166 µM. The “DevTox-GLR Endo ACC” value ([2]; activity concentration at cutoff, SOX17-positive cells, 48 h exposure) was 0.04 µM, the “% Max Inhibition” value ([2]; maximum inhibition of SOX17-positive cells, reference chemical testing, 48 h exposure) was 93% and the “HIT−CALL” value ([2]; tcpl plot AEID3094, COFF 20.3) was 1. The “quickPredict TI” value [3] was 0.003 µM, the “increase of BRA protein expression (in words)” value [4] was “lack of significant BRA perturbation” and the “toxicological tipping point concentration” value [5] was 17 ± 11 nM. For the same compound, the CC50 at 48 h [6] was 5530 nM, the Emax ([7]; Homo sapiens, read-out: Cell Count % Max Inhibition) was 97.6% and the “Cell Count ACC” value ([7]; human, 48 h) was 3.839 µM. For the same compound, the “DevTox-GLR Endo CC” value ([7]; human, 48 h) was 3.84 µM, the AC50 ([8]; Homo sapiens, read-out: ga (winning model)) was 87100 nM and the Emax [8, 12] was 71.4%. For the same compound, the MAX_MEAN ([8]; tcpl plot AEID3095, maximum mean response) was 50.7 Percent Activity, the MAX_MED ([8]; tcpl plot AEID3095, maximum median response) was 53.1 Percent Activity and the IC50 [9] was 70 nM. The “hPST TC50” value ([10]; cytotoxicity half-maximal concentration) was 33000 nM, the “hPST TC50” value ([10]; hPST cytotoxicity) was 33000 nM and the “Development Toxicant Classification” value ([11]; Table S2) was “Positive”. For the same compound, the Classification ([11]; developmental toxicant classification (Teratogen / Non-Teratogen) of reference and training chemicals, ref DOI per chemical: 10.1093/toxsci/kft239, 10.1093/toxsci/kfaa014, 10.1177/026119290203000204, 10.1038/s41598-020-59542-x) was “Teratogen”, the “DT Class.” value ([11]; chemicals common with hPST) was “Pos” and the “DT Class.” value ([11]; chemicals common with quickPredict) was “Pos”. For the same compound, the “Developmental Toxicant Classification” value ([11]; reference chemicals) was “Positive”.
